What was measured:
PRMT5 [1] = molecular target: T1, PRMT5 (Homo sapiens, UniProt O14744); experiment: PRMT5 inhibition assay with SAM as cofactor; assay type: biochemical; conditions: against PRMT5 in the presence of SAM as cofactor
T1 construct: purchased Viva (custom protein)
Excerpt: (§1) The Ki values can be calculated from the IC50 values as described in the Examples section. As detailed in the Examples section, for the assay performed in the presence of SAM, IC50=Ki×1.5 (Ki=IC50/1.5). For the assay performed in the presence of MTA, IC50=Ki×13.5 (Ki=IC50/13.5). Column 6 indicates the ratio between the Ki of compounds in the presence of SAM and the Ki of compounds in the presence of MTA

PRMT5 [2] = molecular target: T1, PRMT5; experiment: PRMT5 inhibition assay with no cofactor; assay type: biochemical; conditions: against PRMT5 with no cofactor; read-out: No Co-factor IC50
PRMT5 [3] = molecular target: T1, PRMT5; experiment: PRMT5 inhibition assay with MTA as cofactor; assay type: biochemical; conditions: for IC50: against PRMT5 with MTA as cofactor; for SAM/MTA Ratio: ratio of Ki in the presence of SAM to Ki in the presence of MTA, Ki=IC50/1.5 (SAM), Ki=IC50/13.5 (MTA)
Excerpt: as §1

[4] = tested on: HAP1 MTAP-intact cell line; experiment: SDMA in-cell western assay, HAP1 MTAP-intact; assay type: cell-based; conditions: Homo sapiens
Outline: (§2)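 Symmetric dimethylarginine (SDMA) levels were measured by in-cell western in an isogenic HAP1 pair. One line expresses endogenous MTAP and the other is MTAP-null, with an IC50 derived in each.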

[5] = tested on: HAP1 MTAP-deleted cell line; experiment: SDMA in-cell western assay, HAP1 MTAP-deleted; assay type: cell-based; conditions: for IC50: Homo sapiens, HAP1 MTAP-deleted (MTAP-null) cell line; for MTAP Intact/Deleted Ratio: IC50 ratio HAP1 MTAP-intact / HAP1 MTAP-deleted, >=3 fold considered MTAP-selective
Outline: as §2

T1 sequence (O14744 whole entry): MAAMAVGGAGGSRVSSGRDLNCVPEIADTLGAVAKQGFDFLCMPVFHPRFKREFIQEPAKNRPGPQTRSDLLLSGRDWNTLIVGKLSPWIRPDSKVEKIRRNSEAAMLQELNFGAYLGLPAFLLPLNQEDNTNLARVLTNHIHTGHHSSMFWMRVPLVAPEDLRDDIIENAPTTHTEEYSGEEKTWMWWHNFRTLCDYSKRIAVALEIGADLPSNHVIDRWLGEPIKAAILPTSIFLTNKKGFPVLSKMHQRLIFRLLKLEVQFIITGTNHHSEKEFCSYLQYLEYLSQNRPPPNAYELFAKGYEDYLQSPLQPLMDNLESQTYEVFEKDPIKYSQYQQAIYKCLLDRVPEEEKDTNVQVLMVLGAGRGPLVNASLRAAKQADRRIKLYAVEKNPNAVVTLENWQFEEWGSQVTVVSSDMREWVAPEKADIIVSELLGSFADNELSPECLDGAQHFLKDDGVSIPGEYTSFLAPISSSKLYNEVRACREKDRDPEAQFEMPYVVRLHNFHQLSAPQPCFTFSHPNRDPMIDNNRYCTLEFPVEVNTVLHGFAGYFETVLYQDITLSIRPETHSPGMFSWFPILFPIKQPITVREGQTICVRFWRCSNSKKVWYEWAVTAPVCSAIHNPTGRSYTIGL
T1 sequence (Q9BQA1 whole entry partner): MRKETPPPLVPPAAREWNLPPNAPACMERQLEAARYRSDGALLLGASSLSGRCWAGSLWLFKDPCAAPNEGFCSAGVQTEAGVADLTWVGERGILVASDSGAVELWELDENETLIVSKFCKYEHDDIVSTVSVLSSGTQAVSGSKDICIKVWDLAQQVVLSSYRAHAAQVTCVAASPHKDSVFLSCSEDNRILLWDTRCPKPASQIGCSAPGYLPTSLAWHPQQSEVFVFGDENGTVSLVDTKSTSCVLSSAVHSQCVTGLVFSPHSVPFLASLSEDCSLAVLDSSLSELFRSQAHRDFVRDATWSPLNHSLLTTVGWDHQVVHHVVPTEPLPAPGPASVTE

Compound: CCOc1nc(N2CCN(C(=O)OC)CC2)ccc1C(=O)NC[C@@H](O)[C@@H]1Cc2ccc(OCc3ccnn3C)cc2CN1 [Compound 18, methyl 4-(6-ethoxy-5-(((R)-2-hydroxy-2-((S)-7-((1-methyl-1H-pyrazol-5-yl)methoxy)-1,2,3,4-tetrahydroisoquinolin-3-yl)ethyl)carbamoyl)pyridin-2-yl)piperazine-1-carboxylate]
- IC50 (PRMT5 [1]): 50 to 500 nM
- IC50 (PRMT5 [2]): 500 to 5000 nM
- IC50 (PRMT5 [3]): < 50 nM
- SAM/MTA Ratio (PRMT5 [3]): A (a Ki ratio greater than or equal to 10 fold between the Ki in the presence of SAM and the Ki in the presence of MTA)
- IC50 [4]: ≥ 10000 nM
- IC50 [5]: < 1000 nM
- MTAP Intact/Deleted Ratio [5]: A* (an IC50 ratio greater than or equal to 10 fold between the IC50 in the HAP1 MTAP-intact cell line and the HAP1 MTAP-deleted cell line)

Compound: Cc1ncoc1COc1ccc2c(c1)CN[C@H]([C@H](O)CNC(=O)c1ccc3c(c1)CCN(C(=O)c1ccc(Br)cc1)C3)C2 [Compound 20, 2-(4-bromobenzoyl)-N—((R)-2-hydroxy-2-((S)-7-((4-methyloxazol-5-yl)methoxy)-1,2,3,4-tetrahydroisoquinolin-3-yl)ethyl)-1,2,3,4-tetrahydroisoquinoline-6-carboxamide]
- IC50 (PRMT5 [1]): 50 to 500 nM
- IC50 (PRMT5 [2]): 50 to 500 nM
- IC50 (PRMT5 [3]): < 50 nM
- SAM/MTA Ratio (PRMT5 [3]): A (a Ki ratio greater than or equal to 10 fold between the Ki in the presence of SAM and the Ki in the presence of MTA)
- IC50 [4]: 1000 to 10000 nM
- IC50 [5]: < 1000 nM
- MTAP Intact/Deleted Ratio [5]: A* (an IC50 ratio greater than or equal to 10 fold between the IC50 in the HAP1 MTAP-intact cell line and the HAP1 MTAP-deleted cell line)

Compound: COc1ccc(C(=O)N2CCc3cc(C(=O)NC[C@@H](O)[C@@H]4Cc5ccc(OCc6ocnc6C)cc5CN4)ccc3C2)cc1 [Compound 21, N—((R)-2-hydroxy-2-((S)-7-((4-methyloxazol-5-yl)methoxy)-1,2,3,4-tetrahydroisoquinolin-3-yl)ethyl)-2-(4-methoxybenzoyl)-1,2,3,4-tetrahydroisoquinoline-6-carboxamide]
- IC50 (PRMT5 [1]): 50 to 500 nM
- IC50 (PRMT5 [2]): 50 to 500 nM
- IC50 (PRMT5 [3]): < 50 nM
- SAM/MTA Ratio (PRMT5 [3]): A (a Ki ratio greater than or equal to 10 fold between the Ki in the presence of SAM and the Ki in the presence of MTA)
- IC50 [4]: 1000 to 10000 nM
- IC50 [5]: < 1000 nM
- MTAP Intact/Deleted Ratio [5]: A* (an IC50 ratio greater than or equal to 10 fold between the IC50 in the HAP1 MTAP-intact cell line and the HAP1 MTAP-deleted cell line)

Compound: Cc1ncoc1COc1ccc2c(c1)CN[C@H]([C@H](O)CNC(=O)c1ccc(OC3CCN(Cc4ccncc4)CC3)cc1)C2 [Compound 23, N—((R)-2-hydroxy-2-((S)-7-((4-methyloxazol-5-yl)methoxy)-1,2,3,4-tetrahydroisoquinolin-3-yl)ethyl)-4-((1-(pyridin-4-ylmethyl)piperidin-4-yl)oxy)benzamide]
- IC50 (PRMT5 [1]): 50 to 500 nM
- IC50 (PRMT5 [2]): 50 to 500 nM
- IC50 (PRMT5 [3]): < 50 nM
- SAM/MTA Ratio (PRMT5 [3]): A (a Ki ratio greater than or equal to 10 fold between the Ki in the presence of SAM and the Ki in the presence of MTA)
- IC50 [4]: < 1000 nM
- IC50 [5]: < 1000 nM
- MTAP Intact/Deleted Ratio [5]: B* (an IC50 ratio greater than or equal to 3 fold but lower than 10 fold between the IC50 in the HAP1 MTAP-intact cell line and the HAP1 MTAP-deleted cell line)

Compound: CCN(C)c1cc(C(=O)NC[C@@H](O)[C@@H]2Cc3ccc(OCc4ocnc4C)cc3CN2)cc(NC2CCC2)n1 [Compound 24, 2-(cyclobutylamino)-6-(ethyl(methyl)amino)-N—((R)-2-hydroxy-2-((S)-7-((4-methyloxazol-5-yl)methoxy)-1,2,3,4-tetrahydroisoquinolin-3-yl)ethyl)isonicotinamide]
- IC50 (PRMT5 [1]): 50 to 500 nM
- IC50 (PRMT5 [2]): 50 to 500 nM
- IC50 (PRMT5 [3]): 50 to 500 nM
- SAM/MTA Ratio (PRMT5 [3]): A (a Ki ratio greater than or equal to 10 fold between the Ki in the presence of SAM and the Ki in the presence of MTA)
- IC50 [4]: ≥ 10000 nM
- IC50 [5]: < 1000 nM
- MTAP Intact/Deleted Ratio [5]: A* (an IC50 ratio greater than or equal to 10 fold between the IC50 in the HAP1 MTAP-intact cell line and the HAP1 MTAP-deleted cell line)

Compound: Cc1ncoc1COc1ccc2c(c1)CN[C@H]([C@H](O)CNC(=O)c1cccc(-c3ccccn3)c1)C2 [Compound 25, N—((R)-2-hydroxy-2-((S)-7-((4-methyloxazol-5-yl)methoxy)-1,2,3,4-tetrahydroisoquinolin-3-yl)ethyl)-3-(pyridin-2-yl)benzamide]
- IC50 (PRMT5 [1]): 50 to 500 nM
- IC50 (PRMT5 [2]): ≥ 5000 nM
- IC50 (PRMT5 [3]): 50 to 500 nM
- SAM/MTA Ratio (PRMT5 [3]): A (a Ki ratio greater than or equal to 10 fold between the Ki in the presence of SAM and the Ki in the presence of MTA)
- IC50 [4]: ≥ 10000 nM
- IC50 [5]: 1000 to 10000 nM
- MTAP Intact/Deleted Ratio [5]: C* (an IC50 ratio of less than 3 fold between the IC50 in the HAP1 MTAP-intact cell line and the HAP1 MTAP-deleted cell line)

Compound: COc1cc(C(=O)NC[C@@H](O)[C@@H]2Cc3ccc(OCc4ocnc4C)cc3CN2)cc(NC2CCC2)n1 [Compound 26, 2-(cyclobutylamino)-N—((R)-2-hydroxy-2-((S)-7-((4-methyloxazol-5-yl)methoxy)-1,2,3,4-tetrahydroisoquinolin-3-yl)ethyl)-6-methoxyisonicotinamide]
- IC50 (PRMT5 [1]): 50 to 500 nM
- IC50 (PRMT5 [2]): 50 to 500 nM
- IC50 (PRMT5 [3]): < 50 nM
- SAM/MTA Ratio (PRMT5 [3]): A (a Ki ratio greater than or equal to 10 fold between the Ki in the presence of SAM and the Ki in the presence of MTA)
- IC50 [4]: < 1000 nM
- IC50 [5]: < 1000 nM
- MTAP Intact/Deleted Ratio [5]: C* (an IC50 ratio of less than 3 fold between the IC50 in the HAP1 MTAP-intact cell line and the HAP1 MTAP-deleted cell line)

Compound: Cc1ncoc1COc1ccc2c(c1)CN[C@H]([C@H](O)CNC(=O)c1cc(NC3CCC3)ncc1F)C2 [Compound 27, 2-(cyclobutylamino)-5-fluoro-N—((R)-2-hydroxy-2-((S)-7-((4-methyloxazol-5-yl)methoxy)-1,2,3,4-tetrahydroisoquinolin-3-yl)ethyl)isonicotinamide]
- IC50 (PRMT5 [1]): 50 to 500 nM
- IC50 (PRMT5 [2]): 500 to 5000 nM
- IC50 (PRMT5 [3]): 50 to 500 nM
- SAM/MTA Ratio (PRMT5 [3]): A (a Ki ratio greater than or equal to 10 fold between the Ki in the presence of SAM and the Ki in the presence of MTA)
- IC50 [4]: 1000 to 10000 nM
- IC50 [5]: < 1000 nM
- MTAP Intact/Deleted Ratio [5]: A* (an IC50 ratio greater than or equal to 10 fold between the IC50 in the HAP1 MTAP-intact cell line and the HAP1 MTAP-deleted cell line)

Compound: Cc1ncoc1COc1ccc2c(c1)CN[C@H]([C@H](O)CNC(=O)c1cccc(NC3CCC3)c1)C2 [Compound 28, 3-(cyclobutylamino)-N—((R)-2-hydroxy-2-((S)-7-((4-methyloxazol-5-yl)methoxy)-1,2,3,4-tetrahydroisoquinolin-3-yl)ethyl)benzamide]
- IC50 (PRMT5 [1]): 50 to 500 nM
- IC50 (PRMT5 [2]): 50 to 500 nM
- IC50 (PRMT5 [3]): < 50 nM
- SAM/MTA Ratio (PRMT5 [3]): A (a Ki ratio greater than or equal to 10 fold between the Ki in the presence of SAM and the Ki in the presence of MTA)
- IC50 [4]: 1000 to 10000 nM
- IC50 [5]: < 1000 nM
- MTAP Intact/Deleted Ratio [5]: A* (an IC50 ratio greater than or equal to 10 fold between the IC50 in the HAP1 MTAP-intact cell line and the HAP1 MTAP-deleted cell line)

Compound: CC(=O)N1CCN(c2cc(C(=O)NC[C@@H](O)[C@@H]3Cc4ccc(OCc5ocnc5C)cc4CN3)cc(NC3CCC3)n2)CC1 [Compound 29, 2-(4-acetylpiperazin-1-yl)-6-(cyclobutylamino)-N—((R)-2-hydroxy-2-((S)-7-((4-methyloxazol-5-yl)methoxy)-1,2,3,4-tetrahydroisoquinolin-3-yl)ethyl)isonicotinamide]
- IC50 (PRMT5 [1]): 50 to 500 nM
- IC50 (PRMT5 [2]): 50 to 500 nM
- IC50 (PRMT5 [3]): < 50 nM
- SAM/MTA Ratio (PRMT5 [3]): A (a Ki ratio greater than or equal to 10 fold between the Ki in the presence of SAM and the Ki in the presence of MTA)
- IC50 [4]: 1000 to 10000 nM
- IC50 [5]: < 1000 nM
- MTAP Intact/Deleted Ratio [5]: A* (an IC50 ratio greater than or equal to 10 fold between the IC50 in the HAP1 MTAP-intact cell line and the HAP1 MTAP-deleted cell line)

Compound: Cc1ncoc1COc1ccc2c(c1)CN[C@H]([C@H](O)CNC(=O)c1cc(NC3CCC3)nc(N3CCN(C(C)C)CC3)c1)C2 [Compound 30, 2-(cyclobutylamino)-N—((R)-2-hydroxy-2-((S)-7-((4-methyloxazol-5-yl)methoxy)-1,2,3,4-tetrahydroisoquinolin-3-yl)ethyl)-6-(4-isopropylpiperazin-1-yl)isonicotinamide]
- IC50 (PRMT5 [1]): 50 to 500 nM
- IC50 (PRMT5 [2]): 50 to 500 nM
- IC50 (PRMT5 [3]): < 50 nM
- SAM/MTA Ratio (PRMT5 [3]): A (a Ki ratio greater than or equal to 10 fold between the Ki in the presence of SAM and the Ki in the presence of MTA)
- IC50 [4]: ≥ 10000 nM
- IC50 [5]: ≥ 10000 nM
- MTAP Intact/Deleted Ratio [5]: C* (an IC50 ratio of less than 3 fold between the IC50 in the HAP1 MTAP-intact cell line and the HAP1 MTAP-deleted cell line)

Compound: Cc1ncoc1COc1ccc2c(c1)CN[C@H]([C@H](O)CNC(=O)c1cc(NC3CCC3)nc(N3CCCCC3)c1)C2 [Compound 31, 2-(cyclobutylamino)-N—((R)-2-hydroxy-2-((S)-7-((4-methyloxazol-5-yl)methoxy)-1,2,3,4-tetrahydroisoquinolin-3-yl)ethyl)-6-(piperidin-1-yl)isonicotinamide]
- IC50 (PRMT5 [1]): 50 to 500 nM
- IC50 (PRMT5 [2]): 50 to 500 nM
- IC50 (PRMT5 [3]): 50 to 500 nM
- SAM/MTA Ratio (PRMT5 [3]): A (a Ki ratio greater than or equal to 10 fold between the Ki in the presence of SAM and the Ki in the presence of MTA)
- IC50 [4]: < 1000 nM
- IC50 [5]: < 1000 nM
- MTAP Intact/Deleted Ratio [5]: C* (an IC50 ratio of less than 3 fold between the IC50 in the HAP1 MTAP-intact cell line and the HAP1 MTAP-deleted cell line)
